For assay [1], the system named is rat mast cells. Kind of assay: Histamine secretion (compound 48/80-stimulated). To be noted: compound 48/80 0.1 μg/ml, 2 min, 37° C.; read-out: IC50. It counts as cell-based. From the text:
Using an in vitro rat model of mast cell degranulation (proposed by the CRO CEREP, catalog number 2006: 771-c), we aimed to investigate whether the synthetic molecules OM-174-DP (compound 1b) OM-174-MP-PD (19), OM-174-MP-EP (33), OM-174-MP-CM (35c) and OM-174-MP-PR (17) would inhibit histamine secretion by compound 48/80-stimulated mastocytes. The protocol used is briefly summarized below:
The results are expressed as a percent of control specific activity ((measured specific activity/control specific activity)×100) obtained in the presence of the test compounds. The IC50 values (concentration causing a half-maximal inhibition of control specific activity) were determined by non-linear regression analysis of the inhibition curves generated with mean replicate values using Hill equation curve fitting (Y=D+[(A−D)/(1+(C/C50)nH)], where Y=specific activity, D=minimum specific activity, A=maximum specific activity, C=compound concentration, C50=IC50, and nH=slope factor). This analysis was performed using a software developed at Cerep (Hill software) and validated by comparison with data generated by the commercial software SigmaPlot® 4.0 for Windows® (© 1997 by SPSS Inc.).
In each experiment, the reference compound was tested concurrently with the test compounds in order to assess the assay suitability. It was tested at several concentrations (for IC50 value determination), and the data were compared with historical values determined at CEREP. The assay was rendered valid if the suitability criteria were met, in accordance with the corresponding Standard Operating Procedure.

Assay [2] deals with human peripheral blood mononuclear cells (PBMC). Kind of assay: TNF-α secretion by human PBMC (ELISA). Type of assay: cell-based. To be noted: 24 h. As to the method: Peripheral blood from healthy donors (Centre de transfusion, Hôpital Universitaire, Geneva) was centrifuged to get the buffy coat. The buffy coat was mixed with Hanks' balanced saline solution (HBSS, Sigma, Buchs, Switzerland), layered over Ficoll Paque Plus (Amersham Pharmacia) to 1.077 g/mL and centrifuged (2800 rpm, 20° C., 25 min). Cells harvested from the interphase were washed twice in HBSS at 800 rpm for 15 min at room temperature and the pelleted cells were resuspended in HBSS. The cell counts were performed using a Neubauer cell. All cell cultures were performed in RPMI-1640 medium supplemented with penicillin (100 U/mL), streptomycin (100 μg/mL), L-glutamine (2 mmol/L) and 10% fetal calf serum (FCS), all obtained from Sigma. For in vitro stimulation, the cells were cultured at a concentration of 1×10^6 viable cells/well.
PBMC were incubated at 37° C. and under 5% CO2 atmosphere with the controls (see below) and with the products of the invention at 1, 5, and 20 μg/mL for IL-6, and at 0.2, 2, and 20 μg/mL for TNF-α secretion. Medium: RPMI alone.
The surpernatants of the cultures were harvested after 24 h and the concentration of IL-6 and TNF-α were measured by an enzyme-linked immunosorbent assay (ELISA) (Human IL-6 and TNF-α ELISA Set, BD OptEIA, San Diego, USA), according to the manufacturer instructions. The detection limits were 10 and 8 pg/mL respectively.
On the technique in general: ELISA stands for enzyme-linked immunosorbent assay.

pIC50: −log10 of the molar value.

Drawing on patent US20100168054A1, “Functionalized Beta 1,6 Glucosamine Disaccharides and Process for Their Preparation” (OM PHARMA, priority 2006, published 2010), this text covers IC50 and TNF-α for 1 compound.

In general, pIC50 refers to −log10 of the IC50, conventionally taken in molar units. As to `CCCCCCCCCCCC(=O)O[C@H](CCCCCCCCCCC)CC(=O)N[C@H]1[C@H](OC[C@H]2O[C@H](OCC(=O)O)[C@H](NC(=O)C[C@H](O)CCCCCCCCCCC)[C@@H](O)[C@@H]2O)O[C@H](CO)[C@@H](OP(=O)(O)O)[C@@H]1O` [compound 35c, 2-Carboxymethyl-2-Deoxy-6-O-[2-deoxy-4-O-(dihydroxyphosphoryl)-2-[(R)-3-dodecanoyloxytetradecanoylamino]-β-D-glucopyranosyl]-2-[(R)-3-hydroxytetradecanoylamino]-α-D-glucopyranoside], in assay [1], the pIC50 was 6.49. The TNF-α in assay [2] (0.2 μg/ml) amounted to 48 pg/mL; in assay [2] (2 μg/ml), 502 pg/mL; in assay [2] (20 μg/ml), 591 pg/mL.
